Some test systems named below: NCI-H226 lung; SW-620 colon; NCI-H460 lung; DU-145 prostate; NCI/ADR-RES ovarian; MALME-3M melanoma; A549 NSCLC; SK-MEL-5 melanoma; MDA-MB-435; MCF7 breast; CCRF-CEM leukemia; HL-60(TB) leukemia; OVCAR-8 ovarian; SNB-75 CNS; OVCAR-3 ovarian; SNB-19 CNS; NCI-H23 lung; HCT-116 colon; RXF 393 renal; A498 renal.
Test in all cases: NCI tumour cell line growth inhibition, 48 h

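Interpolation was linear, between the two tested concentrations surrounding the appropriate level; five concentrations were tested over 48 hours in 96-well plates. The concentration for full growth arrest is given as TGI.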

As to `CC(=O)OCC(OC(C)=O)C(OC(C)=O)C(OC(C)=O)C(/C=N\Nc1nc2ccccc2c(=O)[nH]1)=N/Nc1nc2ccccc2c(=O)[nH]1` (stereo not drawn), the TGI with NCI-H226 lung, with SW-620 colon, in the experiment on NCI-H460 lung, with DU-145 prostate, in the experiment with NCI/ADR-RES ovarian and with MALME-3M melanoma was above 100 µM each time. Besides, the TGI with A549 NSCLC, in the experiment with SK-MEL-5 melanoma, in the experiment on MDA-MB-435, in the experiment on MCF7 breast, with CCRF-CEM leukemia and in the experiment on HL-60(TB) leukemia was above 100 µM throughout. For the same compound, the TGI in the experiment on OVCAR-8 ovarian, with SNB-75 CNS, in the experiment with OVCAR-3 ovarian, with SNB-19 CNS, in the experiment with NCI-H23 lung and in the experiment on HCT-116 colon was above 100 µM throughout. Further, the TGI in the experiment with RXF 393 renal is above 100 µM.
Take `O=C(NNC(=S)NCc1ccccc1)C12CC3CC(CC(C3)C1)C2`: the TGI with NCI-H226 lung, in the experiment with SW-620 colon, with NCI-H460 lung, with A498 renal, in the experiment with DU-145 prostate and in the experiment on NCI/ADR-RES ovarian was above 100 µM throughout. The TGI with MALME-3M melanoma was above 100 µM; with MDA-MB-435, above 100 µM; in the experiment on MCF7 breast, above 100 µM; in the experiment with CCRF-CEM leukemia, above 100 µM; in the experiment with HL-60(TB) leukemia it was 51.7 µM; in the experiment on OVCAR-8 ovarian, above 100 µM. Moreover, the TGI with SNB-75 CNS, with OVCAR-3 ovarian, in the experiment with SNB-19 CNS, in the experiment with NCI-H23 lung, in the experiment on HCT-116 colon and in the experiment on RXF 393 renal was above 100 µM each time.
As to `CN(C)C(=O)C1CCN(Cc2c[nH]c3ccccc23)CC1`, the TGI with NCI-H226 lung was above 100 µM; with SW-620 colon it was 30.7 µM; in the experiment with A498 renal it was above 100 µM; in the experiment with DU-145 prostate, above 100 µM; in the experiment with NCI/ADR-RES ovarian, above 100 µM; in the experiment with MALME-3M melanoma it was above 100 µM. The TGI with A549 NSCLC, in the experiment with SK-MEL-5 melanoma, in the experiment on MDA-MB-435, in the experiment with MCF7 breast, in the experiment on HL-60(TB) leukemia and in the experiment on OVCAR-8 ovarian was above 100 µM each time. The TGI in the experiment on SNB-75 CNS, with OVCAR-3 ovarian, with SNB-19 CNS, in the experiment on NCI-H23 lung, with HCT-116 colon and with RXF 393 renal was above 100 µM in each case.
Take `Cn1c2c3c(F)c(F)ccc3nc-2cc2ccccc21`: the TGI in the experiment with NCI-H226 lung was determined as 13.4 µM; with SW-620 colon, 12.4 µM; in the experiment on NCI-H460 lung, 12.6 µM; in the experiment on A498 renal, 2.89 µM; with DU-145 prostate, 10.2 µM; with NCI/ADR-RES ovarian, 7.68 µM. In addition, the TGI in the experiment on MALME-3M melanoma stood at 14.1 µM; in the experiment with A549 NSCLC, 15.4 µM; in the experiment on SK-MEL-5 melanoma, 12.8 µM; in the experiment on MDA-MB-435, 15.7 µM; with MCF7 breast, 30 µM; in the experiment on CCRF-CEM leukemia, 28 µM. The TGI with HL-60(TB) leukemia turned out to be 56.6 µM; in the experiment on OVCAR-8 ovarian, 16.3 µM; with SNB-75 CNS, 5.71 µM; in the experiment with OVCAR-3 ovarian it was 13.6 µM; with SNB-19 CNS, 18.2 µM; in the experiment with NCI-H23 lung it was 3.18 µM. This compound displayed a TGI with RXF 393 renal of 26.9 µM.
With `CC1(C)CN=C(Nc2ccc(F)c(F)c2)S1`, the TGI with NCI-H226 lung, in the experiment with SW-620 colon, in the experiment with DU-145 prostate, in the experiment on NCI/ADR-RES ovarian, in the experiment on MALME-3M melanoma and in the experiment on A549 NSCLC was above 100 µM throughout. Moreover, the TGI in the experiment on SK-MEL-5 melanoma, with MDA-MB-435, with MCF7 breast, in the experiment with CCRF-CEM leukemia, in the experiment with HL-60(TB) leukemia and in the experiment on OVCAR-8 ovarian was above 100 µM each time. Also, the TGI in the experiment on SNB-75 CNS, in the experiment with OVCAR-3 ovarian, in the experiment with SNB-19 CNS, with NCI-H23 lung, in the experiment with HCT-116 colon and in the experiment on RXF 393 renal was above 100 µM throughout.
For the compound `CN(C)c1ccc(C(=NN)c2ccc(N(C)C)cc2)cc1`, the TGI in the experiment with NCI-H226 lung is above 62.4 µM; with SW-620 colon it was above 100 µM; in the experiment on A498 renal, above 81.7 µM; with DU-145 prostate, above 35 µM; in the experiment with NCI/ADR-RES ovarian, 0.672 µM; with MALME-3M melanoma it was above 100 µM. Further, the TGI with A549 NSCLC is above 100 µM; in the experiment on SK-MEL-5 melanoma, above 100 µM; in the experiment with MDA-MB-435, 0.298 µM; with MCF7 breast, above 100 µM; in the experiment on CCRF-CEM leukemia, 3.41 µM; in the experiment with HL-60(TB) leukemia, 3.35 µM. The TGI in the experiment with OVCAR-8 ovarian was above 100 µM; in the experiment on SNB-75 CNS, 2.83 µM; in the experiment with SNB-19 CNS it was above 100 µM; with NCI-H23 lung, above 37.7 µM; with HCT-116 colon, above 100 µM; in the experiment on RXF 393 renal it was above 32.7 µM.
Turning to `O=[N+]([O-])c1sc2ccc(Cl)cc2c1Nc1ccc(Cl)cc1`, the TGI in the experiment on NCI-H226 lung, in the experiment with SW-620 colon, with NCI-H460 lung, in the experiment with A498 renal, with DU-145 prostate and with NCI/ADR-RES ovarian was above 100 µM throughout. In addition, the TGI in the experiment on MALME-3M melanoma, in the experiment on A549 NSCLC, in the experiment with SK-MEL-5 melanoma, with MDA-MB-435, in the experiment on MCF7 breast and in the experiment on CCRF-CEM leukemia was above 100 µM each time. Further, the TGI with HL-60(TB) leukemia, in the experiment with OVCAR-8 ovarian, in the experiment on SNB-75 CNS, in the experiment on OVCAR-3 ovarian, in the experiment on SNB-19 CNS and in the experiment with NCI-H23 lung was above 100 µM each time. The compound further had a TGI with RXF 393 renal above 100 µM.
Consider `CC(C)CN(CC#N)CC(C)C`, for which the TGI in the experiment with NCI-H226 lung, in the experiment with SW-620 colon, in the experiment with NCI-H460 lung, in the experiment on A498 renal, with DU-145 prostate and in the experiment with NCI/ADR-RES ovarian was above 100 µM throughout. Moreover, the TGI in the experiment on MALME-3M melanoma, with A549 NSCLC, in the experiment with SK-MEL-5 melanoma, with MDA-MB-435, in the experiment with MCF7 breast and with HL-60(TB) leukemia was above 100 µM each time. Besides, the TGI in the experiment on OVCAR-8 ovarian, with SNB-75 CNS, in the experiment with OVCAR-3 ovarian, in the experiment with SNB-19 CNS, in the experiment with NCI-H23 lung and in the experiment on HCT-116 colon was above 100 µM each time. In the experiment on RXF 393 renal, this compound registered a TGI above 100 µM.
